Experimental data reported in patent US5449676A, “Pyridazines” (priority 1991, dated 1995).
Where two headings read alike, the source gives them in different places.

Key:
[1] = test system: acetylcholine-induced bronchospasm; experiment: protective effect against acetylcholine-induced bronchospasm in conscious guinea pigs; assay type: in vivo; conditions: oral, 30 minutes after administration, percentage of protected animals
Method: In addition, the bronchospasmolytic effect was tested on the "protective effect against acetylcholine-induced bronchospasm in conscious guinea pigs" model:
Guinea pigs (250-350 g) are exposed in a closed Plexiglass cylinder (volume […] ) to an acetylcholine mist (0.06% in 0.9% sodium chloride solution; Heyer Use 77 ultrasonic atomizer) before administration of the substance and twice at an interval of 20 minutes after administration of the substance. The time from the start of atomization to the onset of marked breathing difficulties (in some cases hypoxic convulsion in the lateral position) is measured and called the latency time. An increase in the latency time after administration of the substance to at least three times the average latency time before administration of the substance is regarded as a protective effect, and the number of protected animals in the group is determined. […]
[…] After 30 minutes, the animals are again exposed to the acetylcholine mist and the latency times are measured. An increase in the latency time to at least three times the length is regarded as a protective effect.

tracheal rings = experiment: bronchospasmolytic effect on the chain of tracheal rings from guinea pigs in vitro; assay type: cell-based; conditions: for EC50: Cavia porcellus, negative logarithm of EC50 mol/l, 50% of maximum achievable relaxation, read-out: -lg[EC50 ] (converted); for [EC50 ] theophylline/[EC50 ] substance: ratio of EC50 values, theophylline vs substance
Method: The bronchospasmolytic effect of the compounds on the chain of tracheal rings from guinea pigs was tested in vitro as follows:
Thus, a complete dose-effect plot for the test substance is obtained over a period of 20 to 30 minutes. The particular relaxation is expressed as a percentage fraction of the maximum relaxation achievable by administration of (-)isoprenaline (10^-6 mol/l).

PDE III = target: T1, PDE III (Homo sapiens, UniProt Q14432); experiment: inhibition of PDE III isolated from human platelets; assay type: biochemical; conditions: negative logarithm of IC50, cAMP 0.5 μmol/l; for IC50: read-out: PDE III hum. platelets -lg[IC50 ] (converted)
T1 construct: PDE III isolated from human platelets; from tissue; host or cells: human platelets
Source text: (§1) The specific inhibition of phosphodiesterase IV (PDE IV=high-affinity cAMP-PDE which cannot be inhibited by cGMP, rolipram-sensitive) is regarded as particularly indicative of an expected bronchospasmolytic and/or antiinflammatory effect. The specificity of the inhibition is moreover described by the ratio [IC50 ]PDE-III /[IC50 ]PDE-IV (PDE III=high-affinity cAMP-PDE which can be inhibited by cGMP) [H. Hidaka et al., Adv. Cycl. Nucl. Res. 13, 145 (1984); TiPS 5, 237 (1984); R. Weishaar et al., J. Med. Chem. 28, (1985); S. A. Harrison et al., Molec. Pharmac. 29, 506 (1986); J. Klein-Tebbe et al., Allergologie 12, 12 (1989); C. Schudt et al., Allergologie 12, 12, (1989); C. Schudt et al., Agents and Action 1991 in press; C. D. Nicholson et al., TiPS 12, (1), 19 (1991)].
(§2) For this reason, the PDE inhibition by the compounds according to the invention was determined on a PDE III isolated from human platelets and on PDE IV isolated from human polymorphonuclear neutrophilic cells (PMNs) and from the dog trachea. Phosphodiesterases III and IV are isolated by chromatography as described by Polson et al., Biochem. Pharmacol. 31, 3403-3406 (1982).
(§3) The substances are dissolved and diluted further in DMSO. 2.1 μl samples from a series of solutions diluted up to 100 fold are mixed with 212 μl of reaction mixture. The reaction mixture contains Hepes (100 mmol/l), DTE (5 mmol/l), MgCl2 (5 mmol/l), CaCl2 (10 μmol/l), BSA fraction V 0.5 mg, ml, cAMP 0.5 μmol/l, 2,8-^3 H-cAMP 250,000 cpm/ml (0.3 μCi/ml, S.A. […]), SV (snake venom) 25 μg/212 μl of test mixture.

PDE IV [2] = experiment: inhibition of PDE IV isolated from dog trachea; assay type: biochemical; conditions: for PDE IV dog trachea -lg[IC50 ]: negative logarithm of IC50, cAMP 0.5 μmol/l; for [IC50 ] PDE III/[IC50 ] PDE IV dog tr.: selectivity ratio, PDE III hum. platelets vs PDE IV dog trachea
Source text: as §1, §2, §3

PDE IV [3] = experiment: inhibition of PDE IV isolated from human polymorphonuclear neutrophilic cells (PMNs); assay type: biochemical; conditions: for PDE IV hum. PMNs -lg[IC50 ]: negative logarithm of IC50, cAMP 0.5 μmol/l; for [IC50 ] PDE III/[IC50 ] PDE IV PMNs: selectivity ratio, PDE III hum. platelets vs PDE IV hum. PMNs
Source text: as §1, §2, §3

[4] = test system: histamine-induced bronchospasm; experiment: histamine-induced bronchospasm in anesthetized guinea pigs; assay type: in vivo; conditions: 20 μmol/kg; for inhibition in vivo at 20 µmol/kg: Cavia porcellus, iv
Method: One histamine spasm before administration of the substance was compared with several histamine spasms after administration of the substance. The test substances were administered intravenously (i.v.) and/or intrajejunally (i.j.).

[5] = Cavia porcellus, 0.5 h, 100 μmol/kg
[6] = after 1 h, read-out: % inhibition after 1 h of the histamine-induced decrease in Vmax
[7] = average 0-1 h after administration, read-out: % inhibition (0-1 h) of the histamine-induced decrease in Vmax

T1 sequence (Q14432 whole entry): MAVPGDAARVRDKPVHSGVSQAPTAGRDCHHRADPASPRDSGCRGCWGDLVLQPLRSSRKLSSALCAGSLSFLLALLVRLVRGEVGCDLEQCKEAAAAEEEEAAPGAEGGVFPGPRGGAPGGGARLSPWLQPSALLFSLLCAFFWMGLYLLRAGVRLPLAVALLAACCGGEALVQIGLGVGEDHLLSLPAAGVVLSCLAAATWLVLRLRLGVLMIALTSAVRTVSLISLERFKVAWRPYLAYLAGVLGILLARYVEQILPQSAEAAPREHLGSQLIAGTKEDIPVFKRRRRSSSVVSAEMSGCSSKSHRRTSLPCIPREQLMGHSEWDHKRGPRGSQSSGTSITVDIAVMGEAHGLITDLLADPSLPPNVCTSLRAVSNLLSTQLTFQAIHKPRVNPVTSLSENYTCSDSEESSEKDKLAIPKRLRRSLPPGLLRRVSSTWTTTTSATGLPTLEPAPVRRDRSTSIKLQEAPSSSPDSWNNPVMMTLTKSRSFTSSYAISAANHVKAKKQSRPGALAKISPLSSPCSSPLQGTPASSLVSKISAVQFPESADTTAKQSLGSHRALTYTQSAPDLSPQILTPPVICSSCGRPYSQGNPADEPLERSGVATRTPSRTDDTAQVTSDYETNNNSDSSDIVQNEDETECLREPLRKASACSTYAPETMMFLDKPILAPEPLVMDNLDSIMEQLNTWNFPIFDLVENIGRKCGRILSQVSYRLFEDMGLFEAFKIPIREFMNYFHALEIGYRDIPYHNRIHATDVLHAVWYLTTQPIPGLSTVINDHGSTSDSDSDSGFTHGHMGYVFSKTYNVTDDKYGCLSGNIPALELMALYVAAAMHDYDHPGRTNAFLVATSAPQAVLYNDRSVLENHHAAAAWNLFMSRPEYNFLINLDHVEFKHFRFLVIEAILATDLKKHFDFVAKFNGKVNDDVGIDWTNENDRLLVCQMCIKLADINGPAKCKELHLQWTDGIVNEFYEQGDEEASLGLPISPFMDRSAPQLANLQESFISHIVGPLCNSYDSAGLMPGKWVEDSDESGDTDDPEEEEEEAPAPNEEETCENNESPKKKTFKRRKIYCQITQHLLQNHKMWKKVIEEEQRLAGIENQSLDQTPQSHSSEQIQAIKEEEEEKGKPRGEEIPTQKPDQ

CCOc1ccc(-c2ccc(N)nn2)cc1OC(F)F [compound 12]
responders at 100 µmol/kg [1, 5]: 50%
EC50 (tracheal rings): 4.47 µM
[EC50 ] theophylline/[EC50 ] substance (tracheal rings): 30.2
IC50 (PDE III): 316 µM
PDE IV dog trachea -lg[IC50 ] (PDE IV [2]): 4.42
[IC50 ] PDE III/[IC50 ] PDE IV dog tr. (PDE IV [2]): 9.6

CCOc1cc(-c2ccc(N)[n+]([O-])n2)ccc1OC(F)F [compound 19]
responders at 4 µmol/kg ([1]; Cavia porcellus, 0.5 h, 4 μmol/kg): 50%
PDE IV hum. PMNs -lg[IC50 ] (PDE IV [3]): 6.58
[IC50 ] PDE III/[IC50 ] PDE IV PMNs (PDE IV [3]): 240
EC50 (tracheal rings): 0.151 µM
[EC50 ] theophylline/[EC50 ] substance (tracheal rings): 893
inhibition in vivo at 20 µmol/kg [4, 6]: 81%
inhibition in vivo at 20 µmol/kg [4, 7]: 71%
IC50 (PDE III): 63.1 µM
PDE IV dog trachea -lg[IC50 ] (PDE IV [2]): 5.82
[IC50 ] PDE III/[IC50 ] PDE IV dog tr. (PDE IV [2]): 41.7

3-amino-6-(3-cyclopentyloxy-4methoxyphenyl)pyridazine [Serial No. 6]
% protective effect ([1]; 30 μmol/kg): 50%
% protective effect ([1]; 100 μmol/kg): 70%
% protective effect ([1]; 300 μmol/kg): 80%
PDE IV hum. PMNs -lg[IC50 ] (PDE IV [3]): 6.18
[IC50 ] PDE III/[IC50 ] PDE IV PMNs (PDE IV [3]): > 151
% inhibition after 1 h of the histamine-induced decrease in Vmax ([4]; i.v., after 1 h): 20%
% inhibition (0-1 h) of the histamine-induced decrease in Vmax ([4]; i.v., average 0-1 h after administration): 34%
PDE III hum. platelets -lg[IC50 ] (PDE III): < 4.0
PDE IV dog trachea -lg[IC50 ] (PDE IV [2]): 6.48
[IC50 ] PDE III/[IC50 ] PDE IV dog tr. (PDE IV [2]): > 304

CCOc1ccc(-c2ccc(N)nn2)cc1OCC(C)C [compound 9]
responders at 100 µmol/kg [1, 5]: 65%
EC50 (tracheal rings): 9.77 µM
[EC50 ] theophylline/[EC50 ] substance (tracheal rings): 13.8
inhibition in vivo at 20 µmol/kg [4, 6]: 20%
inhibition in vivo at 20 µmol/kg [4, 7]: 16%
IC50 (PDE III): 126 µM
PDE IV dog trachea -lg[IC50 ] (PDE IV [2]): 5.68
[IC50 ] PDE III/[IC50 ] PDE IV dog tr. (PDE IV [2]): 60.2

COc1ccc(-c2ccc(N)nn2)cc1OC(C)C [Serial No. 3, 3-amino-6-[4-methoxy-3-(1-methylethoxy)phenyl]pyridazine]
PDE III hum. platelets -lg[IC50 ] (PDE III): 3.66
PDE IV dog trachea -lg[IC50 ] (PDE IV [2]): 5.30
[IC50 ] PDE III/[IC50 ] PDE IV dog tr. (PDE IV [2]): 43.7

COc1ccc(-c2ccc(N)nn2)cc1OCC(C)C [Serial No. 2, 3-amino-6-[4-methoxy-3-(2-methylpropoxy)phenyl]pyridazine]
responders at 30 µmol/kg ([1]; Cavia porcellus, 0.5 h, 30 μmol/kg): 50%
responders at 100 µmol/kg [1, 5]: 80%
IC50 (PDE III): 209 µM
PDE IV dog trachea -lg[IC50 ] (PDE IV [2]): < 5.0
[IC50 ] PDE III/[IC50 ] PDE IV dog tr. (PDE IV [2]): < 20.9

COc1ccc(-c2ccc(N)nn2)cc1OCC1CCC1 [compound 13]
responders at 100 µmol/kg [1, 5]: 65%
IC50 (PDE III): 224 µM
PDE IV dog trachea -lg[IC50 ] (PDE IV [2]): 4.88
[IC50 ] PDE III/[IC50 ] PDE IV dog tr. (PDE IV [2]): 17.0

CCOc1cc(-c2ccc(N)nn2)ccc1OC(F)F [compound 10]
responders at 100 µmol/kg [1, 5]: 50%
EC50 (tracheal rings): 8.32 µM
[EC50 ] theophylline/[EC50 ] substance (tracheal rings): 16.2
inhibition in vivo at 20 µmol/kg [4, 6]: 44%
inhibition in vivo at 20 µmol/kg [4, 7]: 38%
IC50 (PDE III): 224 µM
PDE IV dog trachea -lg[IC50 ] (PDE IV [2]): 5.37
[IC50 ] PDE III/[IC50 ] PDE IV dog tr. (PDE IV [2]): 52.5

COc1cc(-c2ccc(N)[n+]([O-])n2)ccc1OC(F)F [compound 20]
responders at 2 µmol/kg ([1]; Cavia porcellus, 0.5 h, 2 μmol/kg): 50%
PDE IV hum. PMNs -lg[IC50 ] (PDE IV [3]): 5.89
[IC50 ] PDE III/[IC50 ] PDE IV PMNs (PDE IV [3]): 11.5
EC50 (tracheal rings): 0.447 µM
[EC50 ] theophylline/[EC50 ] substance (tracheal rings): 302
inhibition in vivo at 20 µmol/kg [4, 6]: 48%
inhibition in vivo at 20 µmol/kg [4, 7]: 40%
IC50 (PDE III): 14.8 µM
PDE IV dog trachea -lg[IC50 ] (PDE IV [2]): 5.08
[IC50 ] PDE III/[IC50 ] PDE IV dog tr. (PDE IV [2]): 1.8

COc1cc(-c2ccc(N)nn2)ccc1OC(F)F [compound 11]
responders at 100 µmol/kg [1, 5]: 80%
EC50 (tracheal rings): 4.9 µM
[EC50 ] theophylline/[EC50 ] substance (tracheal rings): 27.6
inhibition in vivo at 20 µmol/kg [4, 6]: 26%
inhibition in vivo at 20 µmol/kg [4, 7]: 30%
IC50 (PDE III): 195 µM
PDE IV dog trachea -lg[IC50 ] (PDE IV [2]): 5.09
[IC50 ] PDE III/[IC50 ] PDE IV dog tr. (PDE IV [2]): 22.9
